The source of these data is patent publication US5141627A, “Chelators whose affinity for calcium ion is increased by illumination” (The Regents of the University of California, priority 1989, dated 1992).

The nature of experiment [1]: Covalent modification of lysine by photochemical intermediates (HPLC). The conditions noted are these: pH 7.2. Here is the method:
To study the extent to which biological substrates are covalently modified by reactive intermediates generated by the photolysis of the diazoketones,100 μM diazo-3 in the presence of 10 mM phosphate and either 100 mM KCl or 100 mM lysine.HCl, at pH 7.2 was photolyzed. The photolysates were analyzed by HPLC (Waters Associates, Inc., Milford, Mass.; C-18 column, Supelco, Inc., Bellefonte, Pa.), with 10 mM KH2 PO4 /K2 HPO4 buffer at pH 7.2 as eluting solvent. The absorbance of the eluate at 254 nm was monitored. Before being injected onto the column, concentrated stock solutions of either KCl or lysine.HCl were added to the photolysate to insure that the electrolyte composition of the injected samples were identical. Thus, 10 μL of 1M KCl were added to 100 μL of the samples of diazo-3 photolyzed in lysine.HCl, while 10 μL of 1M lysine.HCl were added to 100 μL of the sample of diazo-3 photolyzed in KCl.

The nature of experiment [2]: Ca2+ affinity by UV spectra during titration of EGTA or HEEDTA buffers. The conditions noted are these: after photolysis; 0.25M ionic strength (0.2M KCl, 0.05M NaCl), 18° C. Type of experiment: binding.

For `COc1cc(C(=O)C=[N+]=[N-])ccc1N(CC(=O)O)CC(=O)O` [diazo-3, 2-methoxy-4-(diazoacetyl)aniline-N, N-diacetic acid], the covalently modified lysines in experiment [1] (100 μM diazo-3, 200 mM lysine.HCl (so in the source)) was found to be 6 lysines in 10^5. The “frequency of covalent lysine modification” value in experiment [1] (100 μM diazo-3 photolyzed in 100 mM lysine.HCl) was “about 6×10^-5”. In addition, the “absorbance under new (lysine-modified) peak” value in experiment [1] (100 μM diazo-3 photolyzed in 100 mM lysine.HCl, % of total absorbance) is “about 6%”. In addition, in experiment [1] (100 μM diazo-3 photolyzed in 100 mM lysine.HCl, calculated), the modified lysine produced result was “about 6 μM”.
Take `Cc1ccc(N(CC(=O)O)CC(=O)O)c(OCCOc2cc(C(=O)C=[N+]=[N-])ccc2N(CC(=O)O)CC(=O)O)c1` [diazo-2, 1-(2-bis(carboxymethyl)amino-5-methyl) phenoxy-2-(2-bis(carboxymethyl)amino-5-(diazoacetyl)phenoxy) ethane]: the Kd in experiment [2] was 150 nM.
